Experimental data from patent US7348453B2, “Labile linkage for compound delivery to a cell” (Mirus Bio Corporation, priority 2003, dated 2008).

Assays:
[1] = Measurement of acetal hydrolysis kinetics (absorbance vs time in buffered solutions); type: physicochemical; conditions: formaldehyde-derived vs acetaldehyde-derived acetal
Description: To illustrate the rate of cleavage of several example ortho carboxy phenol derived acetals, we synthesized the molecules 1-3 (shown in FIG. 2) and measured the rates of acetal hydrolysis for each at pH 5.2-7.3. • Acetal 1. R′, R=alkyl; and R1, R2, R3, R4=hydrogen • Acetal 2. R′, R=alkyl; R1, R4=hydrogen; R2=carboxyl (carbon-containing group); R3=hydroxyl (heteroatom) • Acetal 3. R′=alkyl; R, R2, R3, R4=hydrogen; and R1=carboxyl (carbon-containing group)
To determine the rate of acetal hydrolysis, compounds 1-3 were added to buffered solutions (pH 7-8 with 5 mM HEPES, or pH 5-7 with 5 mM acetate) at various pH values and the absorbance of the solution was measured as a function of time (λ=302 nm for 1 and 2 and 310 nm for 3). The rate constant was determined by determining the slope of the line derived from plotting ln[1−((A∞−At)/(A28−Ao))] as a function of time t, where A28 is absorbance after >3 hours of hydrolysis, At is the absorbance at time t, and Ao is the initial absorbance. The half-life of the hydrolysis equals ln[2] divided by the rate constant.

[2] = system: Hepa mouse hepatoma cells; test: DNA transfection, luciferase expression (pCIluc/DW921 complexes with crosslinker); type: cell-based; conditions: pCIluc 10 μg/mL, DW921 100 μg/mL, 48 h, average of two wells
Experimental: To a solution of plasmid DNA pCIluc (10 μg/mL, 0.075 mM in phosphate, 2.6 μg/μL pCIluc; prepared according to Danko et al. 1997) in 0.5 mL of 150 mM NaCl and 5 mM TAPS pH 9 was added 100 μg/mL DW921. The complexes were then reacted with glutaraldehyde, periodate oxidized phenyl glucoside (another crosslinker containing a labile bond), or periodate oxidized salicylic galactoside at 1, 2, 4, 8, or 16 μg/mL. The complexes were then added (200 μL) to wells containing Hepa mouse hepatoma cells in Dulbecco's modified Eagle's Media containing 10% fetal bovine serum. The cells were allowed to incubate for 48 h. The cells were then harvested and assayed for luciferase expression as previously reported. The amount of transfection was reported in relative light units and is the average transfection for two separate wells of cells.

| SMILES | rate of acetal hydrolysis relative to acetals derived from alkyl-substituted aldehydes (acetals 1 and 2) [1] | Relative Light Units (luciferase expression) ([2]; 2 μg/mL dialdehyde crosslinker) [Relative Light Units] | Relative Light Units (luciferase expression) ([2]; 4 μg/mL dialdehyde crosslinker) | Relative Light Units (luciferase expression) ([2]; 8 μg/mL dialdehyde crosslinker) [Relative Light Units] |
| --- | --- | --- | --- | --- |
| CC(C)[C@@H]1CC[C@@H](C)C[C@H]1OCOc1c(C(=O)O)cccc1C(=O)O [Acetal 3] | hydrolyze more slowly |  |  |  |
| O=CCCCC=O [glutaraldehyde] |  | 620 | 1,400 Relative Light Units | 590 |
